Measured values reported in patent publication US10251865B2, “Method of activating regulatory T cells with alpha-2B adrenergic receptor agonists” (Allergan, Inc., priority 2010, dated 2019).

What was measured:
[1] = system: PLP-induced model of relapsing remitting EAE; assay: Proteolipid-induced relapsing-remitting EAE in mice: clinical score and pain; assay type: in vivo
Description: The mouse model of experimental autoimmune encephalomyelitis (EAE) has been used extensively to understand the mechanisms underlying the immunopathogenesis of MS. […] Components of the immune system including T cells, macrophage, and antibodies are important contributors to myelin destruction in EAE mice. Further, inflammation also gives rise to multifocal regions demyelination culminating in clinical signs of neurologic dysfunction that include loss of tail tone, abnormal gait and partial-to-complete hind-limb paralysis. PLP-induced EAE model offers the ability to simultaneously investigate the pathogenic mechanisms of CNS inflammation and demyelination and MS-associated pain, a multi-targeted concept that we have optimized here at Allergan. Using sterile technique proteolipid protein myelin peptide (PLP) (139-159: […]) is mixed 1:1 with incomplete Freund's adjuvant (IFA) (Final concentration of 2 mg/ml PLP). 8-10 week old Female SJL mice (Taconic) are injected subcutaneously with 100 μl PLP/IFA (200 μg PLP/injection) on both the right and left hind-flank (day 0) using a 26G needle. Mice immunized using this protocol experience a relapsing-remitting clinical course with episodes of motor impairment interspersed with periods of remission/clinical improvement. Furthermore, these mice display a robust pain phenotype that is most pronounced during periods of clinical remission.
Using this protocol, the onset of PLP-induced EAE in SJL mice occurs at an incidence of (˜90-100%) and is generally apparent by ˜12 days post-immunization, reaching peak disease by 14-21 days. PLP-EAE mice show physical symptoms of neurologic impairment, progressing from partial loss of tail tonicity to partial-to-complete hind-limb paralysis. Up to 75% of the mice will experience a relapsing-remitting clinical course with periods of remission flanked by episodes of motor impairment (hind-limb weakness and paralysis). Histologically, mice display extensive inflammation within white matter tracts (areas containing myelinated axons) of the brain and spinal cord, progressive infiltration and accumulation of inflammatory cells, demyelination and axonal loss. Mice with severe EAE show extensive cellular infiltrates, widespread foci of demyelination. PLP-immunized mice typically display the most severe clinical disease during the first episode of neurologic impairment (days 14-21). […]
Mice were routinely visually scored for behavioral abnormalities on a scale from 0-5; 0-no abnormality, 1-partial loss of tail tonicity (partial limp tail), 2-loss of tail tonicity and hind-limb weakness 3-unsteady gait and partial hind-limb paralysis, 4-complete hind-limb paralysis and 5-moribund or dead. […] Allodynia was measured by the Von Frey hairs method as described earlier. […]

[2] = system: SNL Rat Model of Allodynic Neuropathic Pain; assay: Allodynia reversal (Von Frey) in the SNL Rat Model of Allodynic Neuropathic Pain; assay type: in vivo; details: for % Allodynia Reversal 24 hr post / % Allodynia Reversal 7 day post / % Allodynia Reversal 23 day post: SNL rats; for blockade of the (long-term) analgesic effect by the immunosuppressant FK506: spinal nerve ligation model, result in words
Protocol: The SNL (or Chung) Model in the rat is an accepted standard animal model of neuropathic pain and is thought to mimic the human causalgia condition with respect to symptoms (guarding behavior, mechanical allodynia) and alleviation by pharmacological agents. […] The SNL Model is performed by tightly ligating the L-5 and L-6 spinal nerves, which produces tactile allodynia or sensitivity to light touch as described (Kim and Chung, 1992). Male sprague-dawley rats (100-120 grams; Charles River, Wilmington, Mass.) were anesthetized through inhalation of an isoflurane/oxygen mix. The surgical site was shaved and prepared with betadine. An incision was made from the thoracic vertebra XIII toward down the sacrum. The muscle was separated from the spinal vertebra (left side) at the L4-S2 levels. The L6 vertebra was located and then the transverse process was carefully removed with a small rongeur to visually identify the L4-L6 spinal nerves. The L5 and L6 spinal nerves was isolated and tightly ligated with 6-0 silk thread. A complete homeostasis was confirmed and then the wound was sutured. The duration of the surgery was approximately 20 minutes. A small amount of antibiotic ointment was applied to the incised area and the animals were transferred to a plastic recovery cage under a regulated heat-temperature lamp. Animals were not given any topical or local anesthetics post-operatively because they will inhibit the development of the pain syndrome, which is the phenomenon to be studied.
The allodynia is quantitated in the animals having received the Chung surgery by stimulation with a series of 8 Von Frey hairs on the mid planter area of the surgical hind paw in the up-down manner as described in the literature (Dixon, 1980). Von Frey hairs are applied in an up-down manner depending on the response until the 50% threshold is established. The Von Frey hairs are applied to the plantar surface of the surgical paw with just enough force to bend them. A positive response is recorded if the paw is sharply withdrawn. Eight Von Frey hairs were used 3.61, 3.84, 4.08, 4.31, 4.56, 4.74, 4.93 and 5.18 yielding a gram force of 0.25-15 grams.
[formula] • Mean±SEM: • Mean=average of allodynia reversals • SEM=STDEV/SQ ROOT of n
Testing with compounds is done 2-3 weeks after surgery to establish stable allodynia. In all experimental animals, baseline measurements were taken prior to drug administration and then at 24 hours and 5-23 days post dosing with Alzet osmotic minipump. The investigator was blinded to the identity of the drug groups. The % allodynia reversal is calculated as: [(Postdrug threshold−Predrug threshold)/(15-Predrug threshold)]×100.
Compound B was formulated in 50% DMSO (dimethyl sulfoxide; Sigma, St. Louis, Mo.). This solution was dosed orally TID at a dose of 0.3 or 1 mg/kg. For dosing in the osmotic minipumps (Model 1007D, Alzet Corp., Palo Alto, Calif.) the compound was loaded onto the pumps set to deliver a final dose of either 1 or 3 mg/kg/day. The vehicle for these studies is 50% DMSO.
Compound C was formulated first in 100% DMSO (Sigma, St. Louis, Mo.), then diluted down in 30% DMSO for a 10 mg/ml solution; 15% DMSO for a 3 mg/ml solution and further dilutions were made in water. The compound was dosed orally TID at a dose of either 0.3 or 1 mg/kg for a total daily dose of 1 or 3 mg/kg/day, respectively.

[3] = 1 mg/kg/day osmotic minipump for 7 days + 3 mg/kg FK506 BID SC for 5 days
[4] = 1 mg/kg/day osmotic minipump, treatment for 7 days
[5] = 1 mg/kg/day TID oral for 5 days + 3 mg/kg FK506 BID SC for 5 days, mean % MPE ± SEM
[6] = 1 mg/kg/day TID oral for 5 days, mean % MPE ± SEM

Row | SMILES | pain ([1]; mice immunized with proteolipid protein, 3 mg/kg/day by osmotic minipump, FIG. 3) | symptoms of MS (clinical course of disease) ([1]; treatment during the development of clinical disease, FIG. 4) | clinical score during relapses on days 14 (p<0.01) and 24 ([1]; treatment from days 7-10) | % Allodynia Reversal 24 hr post [2, 3] | % Allodynia Reversal 7 day post [2, 3] | % Allodynia Reversal 24 hr post [2, 4] | % Allodynia Reversal 7 day post [2, 4] | blockade of the (long-term) analgesic effect by the immunosuppressant FK506 [2] | clinical score compared to vehicle-treated mice from days 13-24 ([1]; TID oral dosing (3 mg/kg/day) from day 7-13, FIG. 6) | % Allodynia Reversal 24 hr post [2, 5] | % Allodynia Reversal 23 day post [2, 5] | % Allodynia Reversal 24 hr post [2, 6] | % Allodynia Reversal 23 day post [2, 6]
1 | CCC1=CC(Cc2c[nH]cn2)CCC1 (centres unmarked) [Compound B] | reduced | significant effect on attenuating symptoms | reduced | 57.06 ± 14.52 % | 16.43 ± 19.42% | 78.50 ± 7.85 % | 73.35 ± 11.95 % | blockable |  |  |  |  | 
2 | Clc1cccc(CNC2=NCCN2)c1Cl [Compound C] |  |  |  |  |  |  |  | able to block | significantly reduced | 49 ± 13.15 % | 21.82 ± 4.26% | 66.06 ± 10.71 % | 81.48 ± 6.00 %
